From patent US11083725B2 (priority 2014, dated 2021)
“Also recorded” adds a separate entry of the source.

How the values were obtained:
[1] = test system: CA09; assay: High-throughput modified TCID50 viral titer of drug-screen supernatant on MDCK cells (area under the curve); assay type: cell-based, influenza virus H1N1 strain A/CA/04/2009; conditions: supernatant of CA09-infected NHBE cells titrated on MDCK cells
[2] = test system: PI3K/mTOR pathway; assay: Immunoblot of PI3K/mTOR pathway phosphorylation in infected NHBE cells; assay type: cell-based, human
[3] = test system: NHBE cells; assay: cells; assay type: cell-based, human
[4] = test system: CA09; assay: microbe, parasite or virus in culture; assay type: cell-based, influenza virus H1N1 strain A/CA/04/2009
[5] = test system: cMyc; assay: Influenza-induced cMyc expression in NHBE cells; assay type: cell-based, human; conditions: NHBE cells infected with CA04 up to 17 hours at MOI 1
Experimental: Referring to FIG. 13B, NHBE cells were infected with CA04 for up to 17 hours at MOI 1, harvested at indicated time and RNA purified from lysates then quantified with […].

[6] = Whole-body plethysmography of respiratory parameters in infected treated mice
[7] = Blood chemistry and blood cell counts in treated infected mice; assay type: in vivo, C57/B6 mice; conditions: 25 mg/kg daily oral gavage
Experimental: Referring to FIG. 9A-E, daily drug treatment was started 48 hours before intranasal infection with CA09 at an infectious dose of […] and maintained for 7 days. […] Data represent 3 mice per group.

[8] = test system: NHBE cells; assay: Seahorse metabolic flux (ECAR, OCR, PPR) in NHBE cells; assay type: cell-based, human; conditions: drug 4 hours then infection at 1 MOI with CA04, read 17 hours later
Experimental: OCR and ECAR were measured with the XF-24 Extracellular Flux Analyzer (Seahorse Bioscience, North Billerica, Mass.). Briefly, 2.5×10^5 cells/well were seeded with XF media (non-buffered DMEM with 25 mM glucose, 2 mM L-glutamine, and 1 mM sodium pyruvate) in a Cell-Tak (BD Biosciences, San Jose, Calif.)-coated plate 17 hours after infection and 1 hour before loading the plate into the instrument.
Referring to FIG. 6A-C, NHBE cells were grown and differentiated in 24-well Seahorse plates and left untreated (control), infected for 17 hours at MOI 1 with either viable virus or a […] virus (CA09 or BPL, respectively) or stimulated with TLR agonists lipopolysaccharide (LPS), polyinosinic polycytidylic acid (PolyIC), or Resiquimod (R848). After treatment, the extracellular acidification rate (ECAR) (6A), oxygen consumption rate (OCR) (6B), and proton production rate (PPR) (6C) of NHBE cells were monitored for 2 hours. Error bars represent standard deviation from the mean of triplicate samples, where data represent 3 independent experiments.
Referring to FIG. 12C-E, NHBE cells were seeded in XF24 SEAHORSE cell […] for 4 hours followed by infection at 1 MOI with CA04. 17 hours later plates were processed and read on Seahorse following manufactures protocol.

[9] = test system: NHBE cells; assay: Seahorse spare respiratory and glycolytic capacity of infected NHBE cells; assay type: cell-based, human; conditions: 10 nM BEZ235 for 1 hr, infected 17 hours at MOI 1 with CA04
[10] = test system: CA09; assay: In vivo drug tests in CA09-infected mice: weight loss, survival, lung viral titer; design: species or system C57/B6 mice
[11] = NHBE, read-out: TCID50 (per mL)
[12] = infected mice, whole-body plethysmography

Compound: Cn1c(=O)n(-c2ccc(C(C)(C)C#N)cc2)c2c3cc(-c4cnc5ccccc5c4)ccc3ncc21 [NVP-BEZ235]
- viral titers in the high-throughput screening [1]: reduced
- 4E-BP1 phosphorylation [2]: completely abolished
- 70S6K phosphorylation [2]: completely abolished
- mTOR phosphorylation [2]: reduces
- phosphorylation of PRAS40 [2]: time dependent decrease
- Cell Death Prophylactic [3]: C = V
- Cell Death Therapeutic [3]: C > V
- NHBE cell survival / cell death after infection [3]: differentially affected; also recorded: differential effects
- Viral Titer Prophylactic [4]: Reduced
- viral titers in NHBE cells (validated drug hits) [4]: consistently reduced; also recorded: consistent reduction; also recorded: one of the most significant drops; also recorded: highest efficacy
- log reduction at 10 pM [4, 11]: 0.75
- log reduction at 0.0001 µM [4, 11]: 0.42
- log reduction at 0.001 µM [4, 11]: 0.5
- log reduction at 0.01 µM [4, 11]: 0.53
- log reduction at 0.1 µM [4, 11]: 0.29
- log reduction at 1 µM [4, 11]: 0.51
- log reduction at 10 µM [4, 11]: 0.97
- log reduction at 100 µM [4, 11]: 0.91
- influenza-induced cMyc expression [5]: ablates
- respiratory function ([6]; infected adult mice): augments
- breath frequency [6, 12]: decreases
- expiration time [6, 12]: increases
- inspiration time [6, 12]: increases
- mid-expiratory tidal flow [6, 12]: reduction
- minute volume [6, 12]: decreases
- tidal flow [6, 12]: decreases
- tolerability [7]: well tolerated
- blood amylase ([7]; bled on day 7): significantly altered
- blood protein levels ([7]; bled on day 7): unchanged
- dehydration as measured by blood electrolyte levels and renal function ([7]; bled on day 7): stable
- immune cell proliferation in the blood ([7]; bled on day 7): no impact
- signs of toxicity in the blood chemistry analysis or in critical blood cell counts ([7]; bled on day 7): no signs of toxicity
- influenza induced metabolic flux (ECAR, OCR, PPR) [8]: reverse influenza induced metabolic flux to untreated levels; also recorded: reversed
- glycolytic capacity of infected NHBE [9]: slightly reducing; also recorded: slightly reduces
- spare respiratory capacity of infected NHBE [9]: restores
- viral titer from the lungs (HA titer) ([10]; four days following infection, NVP-BEZ235 25 mg/kg oral gavage, titered on MDCK cells, 25 mg/kg): significant reduction; also recorded: significantly lower
- influenza-induced mortality ([10]; infected adult mice): reduces
- weight loss ([10]; mice infected intranasally with CA09, daily drug for 7 days from 2 days before infection (NVP-BEZ235 25 mg/kg oral gavage; clotrimazole 120 mg/kg ip; α-mangostin 8 mg/kg ip)): no significant effects; also recorded: no effect
- survival ([10]; mice infected intranasally with CA09, daily drug for 7 days from 2 days before infection, monitored 15 days): profound improvement; also recorded: dramatically improved
